Experimental data: article PMC3425385 (2011)

Molecular target: T1, KIAA1363 (AADACL1, NCEH1) (Homo sapiens, UniProt Q6PIU2)
T1 sequence (Q6PIU2 1-408): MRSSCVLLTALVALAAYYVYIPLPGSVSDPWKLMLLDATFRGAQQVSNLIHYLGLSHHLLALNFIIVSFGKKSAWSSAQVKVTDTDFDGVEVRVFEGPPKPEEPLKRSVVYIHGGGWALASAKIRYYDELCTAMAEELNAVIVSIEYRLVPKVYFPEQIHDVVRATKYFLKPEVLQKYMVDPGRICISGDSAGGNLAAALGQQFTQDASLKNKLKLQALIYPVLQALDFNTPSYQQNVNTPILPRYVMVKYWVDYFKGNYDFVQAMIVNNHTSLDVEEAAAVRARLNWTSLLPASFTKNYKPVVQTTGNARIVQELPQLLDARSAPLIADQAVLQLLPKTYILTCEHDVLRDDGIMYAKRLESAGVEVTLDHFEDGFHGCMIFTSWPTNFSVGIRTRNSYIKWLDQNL
Assay: competitive gel-based ABPP with FP-Rh in PC3 cells in situ
Format: cell-based

IC50: 340 ± 150 nM
Substance: JW576
